Measured values reported in paper PMC11844454 (bioRxiv, 2025).

Key:
PP6 holoenzyme = PP6 holoenzyme (Homo sapiens, UniProt O00743); conditions: 100 uM DiFMUP; pH 7.4, 30 C; Mg2+ from enzyme buffer
PP4 holoenzyme = PP4 holoenzyme (Homo sapiens, UniProt P60510); conditions: 100 uM DiFMUP; pH 7.4, 30 C; Mg2+ from enzyme buffer
PP4 holoenzyme, sequence (P60510 2-307): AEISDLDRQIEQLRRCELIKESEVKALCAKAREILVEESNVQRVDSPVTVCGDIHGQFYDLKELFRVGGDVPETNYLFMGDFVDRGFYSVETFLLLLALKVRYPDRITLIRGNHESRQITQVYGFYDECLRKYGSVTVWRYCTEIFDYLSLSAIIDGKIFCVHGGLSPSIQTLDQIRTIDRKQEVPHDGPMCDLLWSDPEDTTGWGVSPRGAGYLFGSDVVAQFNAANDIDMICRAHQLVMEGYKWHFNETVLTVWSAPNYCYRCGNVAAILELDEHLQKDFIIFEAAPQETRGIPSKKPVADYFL
PP4 holoenzyme, sequence (Q9NY27 whole entry partner): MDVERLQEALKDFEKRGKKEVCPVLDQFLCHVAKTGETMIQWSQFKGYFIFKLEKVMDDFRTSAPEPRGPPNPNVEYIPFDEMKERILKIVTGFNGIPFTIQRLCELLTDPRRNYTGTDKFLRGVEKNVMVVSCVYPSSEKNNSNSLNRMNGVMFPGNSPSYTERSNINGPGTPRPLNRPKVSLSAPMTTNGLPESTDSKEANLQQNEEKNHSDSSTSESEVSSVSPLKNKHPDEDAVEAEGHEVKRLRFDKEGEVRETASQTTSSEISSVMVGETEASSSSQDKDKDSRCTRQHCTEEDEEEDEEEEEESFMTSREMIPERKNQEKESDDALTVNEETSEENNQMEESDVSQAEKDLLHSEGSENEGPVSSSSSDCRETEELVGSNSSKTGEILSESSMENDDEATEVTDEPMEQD
PP4 holoenzyme, sequence (Q6IN85 whole entry partner): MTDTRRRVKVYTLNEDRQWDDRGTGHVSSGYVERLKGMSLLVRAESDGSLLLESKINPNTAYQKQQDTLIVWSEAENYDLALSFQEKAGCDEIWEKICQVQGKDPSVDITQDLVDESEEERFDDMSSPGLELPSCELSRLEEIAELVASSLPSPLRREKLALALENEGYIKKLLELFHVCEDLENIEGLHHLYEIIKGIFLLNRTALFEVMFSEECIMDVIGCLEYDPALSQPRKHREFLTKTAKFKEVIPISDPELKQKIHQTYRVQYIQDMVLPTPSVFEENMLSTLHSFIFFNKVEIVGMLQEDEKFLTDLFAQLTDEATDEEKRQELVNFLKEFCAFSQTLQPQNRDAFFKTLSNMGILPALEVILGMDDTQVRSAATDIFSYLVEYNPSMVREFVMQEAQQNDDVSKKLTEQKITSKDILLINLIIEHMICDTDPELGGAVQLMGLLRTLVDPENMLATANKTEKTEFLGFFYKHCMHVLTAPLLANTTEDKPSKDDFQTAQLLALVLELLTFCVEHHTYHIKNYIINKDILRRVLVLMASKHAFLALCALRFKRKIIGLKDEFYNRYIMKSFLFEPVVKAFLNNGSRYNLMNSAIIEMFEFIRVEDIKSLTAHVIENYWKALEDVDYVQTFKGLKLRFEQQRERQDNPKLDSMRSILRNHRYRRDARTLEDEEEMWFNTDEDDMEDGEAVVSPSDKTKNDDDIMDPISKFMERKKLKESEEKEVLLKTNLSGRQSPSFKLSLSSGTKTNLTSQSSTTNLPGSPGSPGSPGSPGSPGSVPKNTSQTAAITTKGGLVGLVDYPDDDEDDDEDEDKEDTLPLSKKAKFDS

PP6 holoenzyme, sequence (O00743 whole entry): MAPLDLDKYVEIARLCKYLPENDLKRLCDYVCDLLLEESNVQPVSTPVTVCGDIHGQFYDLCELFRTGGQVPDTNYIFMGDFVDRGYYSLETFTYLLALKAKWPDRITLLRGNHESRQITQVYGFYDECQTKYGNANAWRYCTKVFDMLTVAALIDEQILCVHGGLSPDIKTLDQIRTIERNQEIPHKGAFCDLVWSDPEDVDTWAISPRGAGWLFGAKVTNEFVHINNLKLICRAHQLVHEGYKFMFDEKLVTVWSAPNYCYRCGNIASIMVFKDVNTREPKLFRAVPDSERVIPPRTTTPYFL
PP6 holoenzyme, sequence (Q9UPN7 whole entry partner): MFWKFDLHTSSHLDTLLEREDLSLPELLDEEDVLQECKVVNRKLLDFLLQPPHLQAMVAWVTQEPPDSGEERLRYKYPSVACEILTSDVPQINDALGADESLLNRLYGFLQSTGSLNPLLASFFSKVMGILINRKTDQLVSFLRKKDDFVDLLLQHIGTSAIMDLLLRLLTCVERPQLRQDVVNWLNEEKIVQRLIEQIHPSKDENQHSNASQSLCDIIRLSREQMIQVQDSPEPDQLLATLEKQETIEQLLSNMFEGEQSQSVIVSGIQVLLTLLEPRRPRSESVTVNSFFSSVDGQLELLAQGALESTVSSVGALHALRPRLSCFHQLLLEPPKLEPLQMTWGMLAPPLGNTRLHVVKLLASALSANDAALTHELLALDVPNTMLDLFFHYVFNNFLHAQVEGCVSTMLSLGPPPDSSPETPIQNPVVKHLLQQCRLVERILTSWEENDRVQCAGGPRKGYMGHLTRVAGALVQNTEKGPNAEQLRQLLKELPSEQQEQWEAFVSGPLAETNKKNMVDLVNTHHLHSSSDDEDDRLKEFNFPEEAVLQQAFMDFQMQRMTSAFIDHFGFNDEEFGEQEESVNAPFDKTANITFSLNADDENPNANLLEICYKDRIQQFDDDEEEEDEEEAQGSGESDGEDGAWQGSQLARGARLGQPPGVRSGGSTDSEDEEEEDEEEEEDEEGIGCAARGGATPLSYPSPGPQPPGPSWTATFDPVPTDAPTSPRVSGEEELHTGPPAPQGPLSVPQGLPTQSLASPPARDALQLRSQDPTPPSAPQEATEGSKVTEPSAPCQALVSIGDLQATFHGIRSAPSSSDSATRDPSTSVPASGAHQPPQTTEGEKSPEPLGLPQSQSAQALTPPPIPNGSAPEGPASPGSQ
PP6 holoenzyme, sequence (O15084 whole entry partner): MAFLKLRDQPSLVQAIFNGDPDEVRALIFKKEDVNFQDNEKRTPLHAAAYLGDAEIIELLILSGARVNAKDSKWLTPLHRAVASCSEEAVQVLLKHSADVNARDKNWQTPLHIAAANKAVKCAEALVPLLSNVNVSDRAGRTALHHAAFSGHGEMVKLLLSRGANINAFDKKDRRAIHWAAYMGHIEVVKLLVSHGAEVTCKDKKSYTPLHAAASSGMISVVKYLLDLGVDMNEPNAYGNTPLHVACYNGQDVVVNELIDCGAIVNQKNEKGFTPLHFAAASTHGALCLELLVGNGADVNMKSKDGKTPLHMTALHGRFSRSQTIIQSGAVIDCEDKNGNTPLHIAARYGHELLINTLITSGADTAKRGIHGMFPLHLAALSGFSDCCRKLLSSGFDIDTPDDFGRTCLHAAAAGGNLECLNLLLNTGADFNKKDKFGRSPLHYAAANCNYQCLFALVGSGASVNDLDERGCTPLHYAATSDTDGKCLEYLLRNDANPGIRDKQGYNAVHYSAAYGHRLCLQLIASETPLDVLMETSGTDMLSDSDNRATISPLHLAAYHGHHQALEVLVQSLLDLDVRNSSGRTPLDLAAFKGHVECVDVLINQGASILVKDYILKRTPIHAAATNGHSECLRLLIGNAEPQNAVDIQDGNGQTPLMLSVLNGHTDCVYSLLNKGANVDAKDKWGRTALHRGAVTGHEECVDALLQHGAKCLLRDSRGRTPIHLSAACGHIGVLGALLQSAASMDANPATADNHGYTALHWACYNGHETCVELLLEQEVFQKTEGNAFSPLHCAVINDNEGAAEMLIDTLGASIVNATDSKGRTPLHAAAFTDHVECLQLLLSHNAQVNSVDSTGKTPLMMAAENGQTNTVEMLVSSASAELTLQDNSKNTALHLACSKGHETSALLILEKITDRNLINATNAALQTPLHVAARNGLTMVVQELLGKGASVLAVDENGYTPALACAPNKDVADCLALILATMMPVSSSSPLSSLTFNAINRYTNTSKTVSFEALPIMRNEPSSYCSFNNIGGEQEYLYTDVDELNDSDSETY

fluorescence dephosphorylation assay (PP4 holoenzyme): mixing purified PP4 and PP6 holoenzymes
Structure (SMILES): Cc1cc(=O)oc2c(F)c(OP(=O)(O)O)c(F)cc12 [DiFMUP]
fluorescence dephosphorylation assay (PP6 holoenzyme): DiFMUP dephosphorylation assay measuring the activity of purified PP6 holoenzyme
